We go through 3 compounds from paper PMC9133112, “The structural basis of Cdc7-Dbf4 kinase dependent targeting and phosphorylation of the MCM2-7 double hexamer” (Nature Communications, 2022).

For this test, the target named is T1, DDK (Dbf4-dependent Cdc7 kinase, Cdc7-Dbf4) (Saccharomyces cerevisiae, UniProt P06243).
T1 construct: full-length Cdc7-Dbf4, expressed in budding yeast, MBP tag cleaved with PreScission, lambda phosphatase treated; with DDK kinase regulatory subunit DBF4
Kind of test: inhibition of MCM2-7 phosphorylation by DDK (gel). It counts as biochemical. As to conditions: substrate MCM2-7.

T1 sequence (P06243 whole entry): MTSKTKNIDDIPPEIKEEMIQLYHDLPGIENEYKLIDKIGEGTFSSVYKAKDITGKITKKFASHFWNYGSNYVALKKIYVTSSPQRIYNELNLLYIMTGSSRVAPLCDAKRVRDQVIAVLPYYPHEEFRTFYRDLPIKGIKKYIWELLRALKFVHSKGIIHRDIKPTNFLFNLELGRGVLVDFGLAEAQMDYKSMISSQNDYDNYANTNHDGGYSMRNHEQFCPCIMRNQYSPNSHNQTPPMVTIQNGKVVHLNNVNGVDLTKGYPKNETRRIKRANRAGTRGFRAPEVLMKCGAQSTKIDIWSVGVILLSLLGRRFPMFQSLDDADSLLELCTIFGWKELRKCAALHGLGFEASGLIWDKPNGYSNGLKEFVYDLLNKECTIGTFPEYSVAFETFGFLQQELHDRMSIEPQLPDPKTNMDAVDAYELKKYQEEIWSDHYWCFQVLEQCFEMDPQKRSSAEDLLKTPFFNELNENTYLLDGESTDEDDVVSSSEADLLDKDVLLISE
T1 sequence (P32325 whole entry partner): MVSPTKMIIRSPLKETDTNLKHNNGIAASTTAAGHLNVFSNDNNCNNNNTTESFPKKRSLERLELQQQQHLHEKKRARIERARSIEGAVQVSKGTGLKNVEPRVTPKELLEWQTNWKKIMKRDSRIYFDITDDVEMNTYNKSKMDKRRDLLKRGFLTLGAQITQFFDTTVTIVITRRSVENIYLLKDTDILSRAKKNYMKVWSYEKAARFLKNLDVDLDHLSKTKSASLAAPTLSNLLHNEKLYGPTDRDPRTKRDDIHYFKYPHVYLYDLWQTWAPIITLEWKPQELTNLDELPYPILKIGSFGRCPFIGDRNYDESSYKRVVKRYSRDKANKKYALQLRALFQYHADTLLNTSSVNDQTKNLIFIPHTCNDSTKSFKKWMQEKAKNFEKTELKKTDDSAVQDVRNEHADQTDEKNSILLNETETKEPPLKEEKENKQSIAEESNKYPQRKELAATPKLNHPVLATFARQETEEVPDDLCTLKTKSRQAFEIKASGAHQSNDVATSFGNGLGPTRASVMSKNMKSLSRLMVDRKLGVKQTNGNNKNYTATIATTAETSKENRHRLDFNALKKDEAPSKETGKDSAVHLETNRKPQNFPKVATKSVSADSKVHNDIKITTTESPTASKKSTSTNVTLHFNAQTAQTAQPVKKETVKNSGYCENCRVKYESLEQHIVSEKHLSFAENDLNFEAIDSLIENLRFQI

Consider `O=C1NCCc2[nH]c(-c3ccncc3)cc21` [PHA767491], for which the inhibition result was “DDK phosphorylation of MCM2-7 is inhibited by the human Cdc7 inhibitors: XL413, PHA767491 and TAK931”.
With `Cc1[nH]ncc1-c1cc2nc([C@@H]3CC4CCN3CC4)[nH]c(=O)c2s1` [TAK931] the entry was “DDK phosphorylation of MCM2-7 is inhibited by the human Cdc7 inhibitors: XL413, PHA767491 and TAK931”.
For the compound `O=c1[nH]c([C@@H]2CCCN2)nc2c1oc1ccc(Cl)cc12` [XL413], the inhibition result is “DDK phosphorylation of MCM2-7 is inhibited by the human Cdc7 inhibitors: XL413, PHA767491 and TAK931”.
